Assays:
anti-NMDAR encephalitis = assay: Case study: tramadol pre-treatment with therapeutic plasma exchange (PLEX) in a patient with anti-NMDAR encephalitis; assay type: in vivo, human
From the text: Described herein is a previously healthy person with newly diagnosed seizures and schizophrenia. […] At that time, they were started on solumedrol 1 g each day for five days along with the last two days of the steroid course being completed. […] Their anti-epileptic medications were escalated to include levetiracetam, phenobarbital, and lacosimide.
The assay used a semi-quantitative indirect immunofluorescence on human embryonic kidney cell cultures expressing recombinant NMDA receptors (transfected HEK 293 cells). […] NMDA receptor antibodies were not sent from their serum. […] Six days after their colectomy, PLEX was restarted for another five sessions.

[1] = Grond and Sablotzki 2004; cited from earlier work
[2] = oral formulation; Grond and Sablotzki 2004; cited from earlier work
[3] = PLEX in combination with tramadol 100 mg enterally three times a day

CNC1(c2ccccc2Cl)CCCCC1=O (stereo not shown) [ketamine]
facial dyskinesias during the first three PLEX sessions (without tramadol) (anti-NMDAR encephalitis; ketamine at 20 mcg/kg/min, patient obtunded and not following commands): minimal improvement

COc1cccc(C2(O)CCCCC2CN(C)C)c1 (stereo not shown) [tramadol, 2-(dimethylaminomethyl)-1-(3-methoxyphenyl)cyclohexanol]
facial dyskinesias by the end of the fifth PLEX session (anti-NMDAR encephalitis; [3]): completely resolved | following commands by the end of the third PLEX session (anti-NMDAR encephalitis; [3]): began to follow commands | level of consciousness by the end of the fifth PLEX session (anti-NMDAR encephalitis; [3]): alert and awake enough to interact with their care providers | overall safety and efficacy in anti-NMDAR encephalitis (anti-NMDAR encephalitis; conclusion of the case study): safe and an effective treatment | recurrence of symptoms at follow up (anti-NMDAR encephalitis; nine months after symptoms onset): has not had any recurrent symptoms | facial dyskinesias after the first PLEX session (anti-NMDAR encephalitis; patient, tramadol 100 mg enterally three times a day, one hour before each of five PLEX sessions): resolved | eye opening immediately following the first PLEX session (anti-NMDAR encephalitis; tramadol 100 mg enterally three times a day, one hour before each PLEX session): opened their eyes spontaneously | patients with serious side effects (hypotension, circulatory collapse, pruritis, sleep disorders, somnolence, abdominal pain, tachycardia) [1]: less than 1% | absorption [2]: completely absorbed | brain concentration versus plasma [2]: higher brain concentration than in plasma | peak onset [2]: approximately 60 min

C[C@H]1C[C@@H]2[C@H]([C@@H](O)C[C@@]3(C)[C@H]2CC[C@]3(O)C(=O)COC(=O)CCC(=O)O)[C@@]2(C)C=CC(=O)C=C12 [solumedrol]
improvement of symptoms after steroid course (anti-NMDAR encephalitis; solumedrol 1 g each day for five days): failed to improve any of their symptoms
